Measurements: publication PMC6060382, “Inhibition of α-, β-, γ-, and δ-carbonic anhydrases from bacteria and diatoms with N′-aryl-N-hydroxy-ureas” (Journal of Enzyme Inhibition and Medicinal Chemistry, 2018)
Where two headings read alike, the source gives them in different places.

Legend:
Experiment in all cases: stopped-flow CO2 hydrase assay
TweCAδ = target: T1, TweCAδ (Conticribra weissflogii, UniProt Q5U9J1); format: biochemical; settings: CO2 hydration, 10 mM HEPES pH 7.5, 0.1 M Na2SO4, 25 °C, 15 min preincubation
T1 construct: gene ca1
T1 sequence (Q5U9J1 1-281): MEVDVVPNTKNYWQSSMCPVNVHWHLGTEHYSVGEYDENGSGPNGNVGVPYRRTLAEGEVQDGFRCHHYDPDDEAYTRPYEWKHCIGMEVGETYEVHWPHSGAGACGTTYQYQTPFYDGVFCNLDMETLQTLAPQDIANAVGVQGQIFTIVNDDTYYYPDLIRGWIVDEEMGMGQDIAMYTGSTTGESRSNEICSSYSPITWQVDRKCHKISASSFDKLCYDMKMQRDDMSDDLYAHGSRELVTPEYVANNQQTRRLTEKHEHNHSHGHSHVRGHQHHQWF

PgiCAγ = target: T2, PgiCAγ; format: biochemical, Porphyromonas gingivalis; settings: CO2 hydration, 10 mM Tris pH 8.3, 0.1 M Na2SO4, 25 °C, 15 min preincubation
T2 construct: gene PgiCA

VchCAβ = target: T3, VchCAβ (Vibrio cholerae, UniProt Q9KUD6); format: biochemical
T3 construct: gene VC_0586
T3 sequence (Q9KUD6 1-222): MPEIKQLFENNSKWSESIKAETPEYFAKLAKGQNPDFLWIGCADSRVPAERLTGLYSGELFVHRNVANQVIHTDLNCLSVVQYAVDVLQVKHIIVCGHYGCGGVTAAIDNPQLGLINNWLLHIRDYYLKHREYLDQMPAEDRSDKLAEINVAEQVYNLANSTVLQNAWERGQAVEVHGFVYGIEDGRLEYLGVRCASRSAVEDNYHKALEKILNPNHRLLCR

VchCAα = target: T4, VchCAα (Vibrio cholerae, UniProt Q9KMP6); format: biochemical; settings: read-out: VchCAα; CO2 hydration, 10 mM HEPES pH 7.5, 0.1 M Na2SO4, 25 °C, 15 min preincubation
T4 construct: gene VC_A0274
T4 sequence (Q9KMP6 21-239 limits assumed): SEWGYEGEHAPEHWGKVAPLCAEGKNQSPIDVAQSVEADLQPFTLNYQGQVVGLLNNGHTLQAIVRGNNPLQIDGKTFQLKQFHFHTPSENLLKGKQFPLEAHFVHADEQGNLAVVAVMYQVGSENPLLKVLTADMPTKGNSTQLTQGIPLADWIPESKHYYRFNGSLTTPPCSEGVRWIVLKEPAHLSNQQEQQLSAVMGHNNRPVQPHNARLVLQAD

VchCAγ = target: T5, VchCAγ (Vibrio cholerae, UniProt Q9KVT1); format: biochemical; settings: CO2 hydration, 10 mM Tris pH 8.3, 0.1 M Na2SO4, 25 °C, 15 min preincubation
T5 construct: gene VC_0058
T5 sequence (Q9KVT1 1-184): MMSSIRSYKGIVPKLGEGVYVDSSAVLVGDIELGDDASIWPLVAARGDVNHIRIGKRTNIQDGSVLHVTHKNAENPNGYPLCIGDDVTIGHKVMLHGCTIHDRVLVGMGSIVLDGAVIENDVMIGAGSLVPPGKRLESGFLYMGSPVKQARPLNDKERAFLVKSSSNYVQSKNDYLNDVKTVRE

PgiCAβ = target: T6, PgiCAβ (Porphyromonas gingivalis, UniProt B2RL07); format: biochemical; settings: CO2 hydration, 10 mM Tris pH 8.3, 0.1 M Na2SO4, 25 °C, 15 min preincubation
T6 construct: gene PGN_1533
T6 sequence (B2RL07 19-242): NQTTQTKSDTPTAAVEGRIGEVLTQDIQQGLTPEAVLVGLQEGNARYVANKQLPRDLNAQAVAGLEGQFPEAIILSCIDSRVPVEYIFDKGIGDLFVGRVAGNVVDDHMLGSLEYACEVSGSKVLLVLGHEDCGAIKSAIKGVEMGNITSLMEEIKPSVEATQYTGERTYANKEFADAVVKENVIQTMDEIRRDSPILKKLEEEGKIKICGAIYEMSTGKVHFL

O=C(NO)Nc1ccc(Oc2ccccc2)cc1 [compound 20, 20: 4-PhO]
Ki (TweCAδ; read-out: TweCAδ): 0.761 µM | Ki (PgiCAγ; read-out: VchCAα): > 10000 nM | Ki (VchCAβ; read-out: VchCAα): > 10000 nM | Ki (VchCAα): > 10 µM | Ki (VchCAγ; read-out: VchCAα): > 10 µM

O=C(NO)Nc1ccc(C(F)(F)F)cc1 [compound 17, 17: 4-CF3]
Ki (TweCAδ; read-out: TweCAδ): 4.64 µM | Ki (PgiCAβ; read-out: VchCAα): > 10 µM | Ki (PgiCAγ; read-out: PgiCAγ): 2630 nM | Ki (VchCAβ; read-out: VchCAα): > 10000 nM | Ki (VchCAα): > 10 µM | Ki (VchCAγ; read-out: VchCAα): > 10 µM

Cc1ccc(C)c(NC(=O)NO)c1 [compound 9, 9: 2,5-Me2]
Ki (TweCAδ; read-out: PgiCAβ): > 10 µM | Ki (PgiCAβ; read-out: PgiCAβ): > 10 µM | Ki (PgiCAγ; read-out: PgiCAγ): 84.4 nM | Ki (VchCAβ; read-out: VchCAβ): 59.3 nM | Ki (VchCAα): 0.0975 µM | Ki (VchCAγ; read-out: VchCAγ): 5.5 µM

Cc1cc(NC(=O)NO)ccc1F [compound 15, 15: 4-F-3-Me]
Ki (TweCAδ; read-out: TweCAδ): 3.94 µM | Ki (PgiCAβ; read-out: VchCAα): > 10 µM | Ki (PgiCAγ; read-out: PgiCAγ): 2880 nM | Ki (VchCAβ; read-out: VchCAα): > 10000 nM | Ki (VchCAα): > 10 µM | Ki (VchCAγ; read-out: VchCAα): > 10 µM

O=C(NO)Nc1ccc(C(F)(F)F)cc1Cl [compound 18, 18: 4-CF3-2-Cl]
Ki (TweCAδ; read-out: TweCAδ): 0.856 µM | Ki (PgiCAγ; read-out: VchCAα): > 10000 nM | Ki (VchCAβ; read-out: VchCAα): > 10000 nM | Ki (VchCAα): > 10 µM | Ki (VchCAγ; read-out: VchCAγ): 5.43 µM

CCOc1ccccc1NC(=O)NO [compound 13, 13: 2-EtO]
Ki (TweCAδ; read-out: TweCAδ): 0.0333 µM | Ki (PgiCAβ; read-out: VchCAα): > 10 µM | Ki (PgiCAγ; read-out: PgiCAγ): > 10000 nM | Ki (VchCAβ; read-out: VchCAα): > 10000 nM | Ki (VchCAα): > 10 µM

O=C(NO)Nc1ccc([N+](=O)[O-])cc1 [compound 7, 7: 4-O2N]
Ki (TweCAδ; read-out: VchCAγ): > 10 µM | Ki (PgiCAβ; read-out: VchCAγ): > 10 µM | Ki (PgiCAγ; read-out: PgiCAγ): 2700 nM | Ki (VchCAβ; read-out: VchCAβ): 54.1 nM | Ki (VchCAα): 0.509 µM | Ki (VchCAγ; read-out: VchCAγ): > 10 µM

O=C(NO)Nc1ccc(F)cc1 [compound 10, 10: 4-F]
Ki (TweCAδ; read-out: VchCAα): > 10 µM | Ki (PgiCAβ; read-out: VchCAα): > 10 µM | Ki (PgiCAγ; read-out: VchCAα): > 10000 nM | Ki (VchCAα): > 10 µM | Ki (VchCAγ; read-out: VchCAα): > 10 µM

COc1ccccc1NC(=O)NO [compound 19, 19: 2-MeO]
Ki (TweCAδ; read-out: TweCAδ): 2.88 µM | Ki (PgiCAγ; read-out: VchCAα): > 10000 nM | Ki (VchCAβ; read-out: VchCAα): > 10000 nM | Ki (VchCAα): > 10 µM | Ki (VchCAγ; read-out: VchCAγ): 4.75 µM

O=C(NO)Nc1ccccc1 [compound 1, 1: H]
Ki (TweCAδ; read-out: VchCAγ): > 10 µM | Ki (PgiCAβ; read-out: VchCAγ): > 10 µM | Ki (PgiCAγ; read-out: PgiCAγ): 6420 nM | Ki (VchCAβ; read-out: VchCAβ): 1810 nM | Ki (VchCAα): 7.26 µM | Ki (VchCAγ; read-out: VchCAγ): > 10 µM

O=C(NO)Nc1ccc(Cl)cc1 [compound 4, 4: 4-Cl]
Ki (TweCAδ; read-out: TweCAδ): 8.74 µM | Ki (PgiCAβ; read-out: VchCAγ): > 10 µM | Ki (PgiCAγ; read-out: PgiCAγ): 934 nM | Ki (VchCAβ; read-out: VchCAβ): 541 nM | Ki (VchCAα): 4.41 µM | Ki (VchCAγ; read-out: VchCAγ): > 10 µM

O=C(NO)Nc1cccc(Cl)c1 [compound 6, 6: 3-Cl]
Ki (TweCAδ; read-out: VchCAγ): > 10 µM | Ki (PgiCAβ; read-out: VchCAγ): > 10 µM | Ki (PgiCAγ; read-out: PgiCAγ): 819 nM | Ki (VchCAβ; read-out: VchCAβ): 60.3 nM | Ki (VchCAα): 4 µM | Ki (VchCAγ; read-out: VchCAγ): > 10 µM

Cc1cc(C)cc(NC(=O)NO)c1 [compound 12, 12: 3,5-Me2]
Ki (TweCAδ; read-out: TweCAδ): 0.0578 µM | Ki (PgiCAβ; read-out: VchCAα): > 10 µM | Ki (PgiCAγ; read-out: PgiCAγ): 5490 nM | Ki (VchCAβ; read-out: VchCAα): > 10000 nM | Ki (VchCAα): > 10 µM | Ki (VchCAγ; read-out: VchCAα): > 10 µM

Cc1ccccc1NC(=O)NO [compound 3, 3: 2-CH3]
Ki (TweCAδ; read-out: VchCAγ): > 10 µM | Ki (PgiCAβ; read-out: VchCAγ): > 10 µM | Ki (PgiCAγ; read-out: PgiCAγ): 4210 nM | Ki (VchCAβ; read-out: VchCAβ): 377 nM | Ki (VchCAα): 0.829 µM | Ki (VchCAγ; read-out: VchCAγ): > 10 µM

CSc1cccc(NC(=O)NO)c1 [compound 14, 14: 3-MeS]
Ki (TweCAδ; read-out: TweCAδ): 0.052 µM | Ki (PgiCAβ; read-out: VchCAα): > 10 µM | Ki (PgiCAγ; read-out: PgiCAγ): 59.8 nM | Ki (VchCAβ; read-out: VchCAα): > 10000 nM | Ki (VchCAα): > 10 µM

O=C(NO)Nc1ccccc1Cl [compound 5, 5: 2-Cl]
Ki (TweCAδ; read-out: VchCAγ): > 10 µM | Ki (PgiCAβ; read-out: VchCAγ): > 10 µM | Ki (PgiCAγ; read-out: PgiCAγ): 3030 nM | Ki (VchCAβ; read-out: VchCAβ): 64.2 nM | Ki (VchCAα): 5.94 µM | Ki (VchCAγ; read-out: VchCAγ): > 10 µM

O=C(NO)Nc1c(F)c(F)c(F)c(F)c1F [compound 16, 16: F5]
Ki (TweCAδ; read-out: TweCAδ): 3.41 µM | Ki (PgiCAβ; read-out: VchCAα): > 10 µM | Ki (PgiCAγ; read-out: PgiCAγ): 3480 nM | Ki (VchCAβ; read-out: VchCAα): > 10000 nM | Ki (VchCAα): > 10 µM | Ki (VchCAγ; read-out: VchCAα): > 10 µM

O=C(NO)Nc1ccccc1[N+](=O)[O-] [compound 8, 8: 2-O2N]
Ki (TweCAδ; read-out: PgiCAβ): > 10 µM | Ki (PgiCAβ; read-out: PgiCAβ): > 10 µM | Ki (PgiCAγ; read-out: PgiCAγ): 82.3 nM | Ki (VchCAβ; read-out: VchCAβ): 52.5 nM | Ki (VchCAα): 0.536 µM | Ki (VchCAγ; read-out: VchCAγ): 5.69 µM

CCOC(=O)c1cccc(NC(=O)NO)c1 [compound 11, 11: 3-EtOOC]
Ki (TweCAδ; read-out: TweCAδ): 8.49 µM | Ki (PgiCAβ; read-out: VchCAα): > 10 µM | Ki (PgiCAγ; read-out: VchCAα): > 10000 nM | Ki (VchCAβ; read-out: VchCAα): > 10000 nM | Ki (VchCAα): > 10 µM | Ki (VchCAγ; read-out: VchCAα): > 10 µM

Cc1ccc(NC(=O)NO)cc1 [compound 2, 2: 4-CH3]
Ki (TweCAδ; read-out: VchCAγ): > 10 µM | Ki (PgiCAβ; read-out: VchCAγ): > 10 µM | Ki (PgiCAγ; read-out: PgiCAγ): 298 nM | Ki (VchCAβ; read-out: VchCAβ): 483 nM | Ki (VchCAα): 0.111 µM | Ki (VchCAγ; read-out: VchCAγ): > 10 µM
